The values below come from the METLIN SMRT retention time set (Domingo-Almenara et al. 2019).

This series is described as follows: gradient 5% acetonitrile 3 min, to 50% in 2 min, to 85% in 15 min, held 3 min, 100 µL/min. The note with it: column: Zorbax Extend-C18 2.1 x 50 mm; eluents: water / acetonitrile, 0.1% formic acid. In a few lines:
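Retention times come from adduct peaks that were picked computationally and then checked by hand. The standards, pure and pooled in mixtures of ~100 molecules, were run on a Zorbax Extend-C18 column (2.1 × 50 mm, 1.8 μm) at 100 μL/min with water and acetonitrile, each with 0.1% formic acid. Detection was by quadrupole time-of-flight mass spectrometry in positive and negative ionization mode, with a dead volume of 40 μL and a dwell volume of 900 μL.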
`Cc1ccc(-c2cc3c(=O)n(Cc4noc(CN5CCN(C(C)C)CC5)n4)ccn3n2)cc1` gave an RP-LC retention time of 665 s.

In turn, `COc1ccc(-c2nc(C)c3c(n2)N(C(C)C)C(=O)C3)cc1` gave an RP-LC retention time of 929 s.

Compound `O=C(CN1C(=O)CCCc2cc(S(=O)(=O)N3CCCCC3)ccc21)Nc1ccccc1` returned an RP-LC retention time of 885 s.

With `CCc1nc(OCC(=O)Nc2ccc(Cl)c(C(F)(F)F)c2)c2ccccc2n1`, the RP-LC retention time was determined as 997 s.

For `COc1ccc(NC(=O)N2CCC(n3cnc4cccnc43)CC2)cc1`, the RP-LC retention time came to 617 s.

As for `Cc1cc2nc(C(F)(F)F)c(=O)n(C(C)C(=O)NCc3ccco3)c2cc1C` (stereo unspecified), the RP-LC retention time turned out to be 756 s.

For the compound `O=C(Nc1cccc(Br)c1)N1CCC(n2cnnc2C2CC2)C1` (stereo unspecified), the RP-LC retention time is 668 s.

Turning to `O=C(NC1(c2nc(-c3ccccc3)no2)CCCCC1)c1cccc(Cl)c1`, the RP-LC retention time worked out at 1230 s.

For the compound `Oc1ccccc1Nc1ccccn1`, the RP-LC retention time amounted to 597 s.

For `CCN1C(=O)c2cccnc2Sc2cc(NC(=O)Cc3ccccc3Cl)ccc21`, the RP-LC retention time came out at 856 s.

`O=C(Cn1cccc1-c1nnc(C2CCC2)o1)NCc1ccc(F)cc1` returned an RP-LC retention time of 832 s.

On to `Cc1noc(C)c1CNC(=O)c1ccccn1`, for which the RP-LC retention time came to 648 s.

In turn, `COc1cc(NC(=O)CSc2ncc(-c3cccc(Cl)c3)o2)cc(OC)c1OC` showed an RP-LC retention time of 896 s.

With `O=C(Cn1cnc2c(sc3nc(-c4ccccc4)ccc32)c1=O)NC1CCCC1`, the RP-LC retention time stood at 906 s.

The compound `CC(NC(=O)c1ccco1)c1nc2ccccc2n1CC(=O)N(C(C)C)C(C)C` (stereo unspecified) had an RP-LC retention time of 691 s.

`COCCN1C(=O)[C@H]2CN(Cc3ccccc3C(F)(F)F)C[C@H]2C1=O`: the RP-LC retention time was found to be 849 s.

For `Cc1ccc(N2N=NC3C(=O)N(c4cccc(Cl)c4)C(=O)C32)cc1F` (stereo unspecified), the RP-LC retention time was 1060 s.

Compound `CCC(C(=O)N1CCN(c2cc(-c3ccccc3)ncn2)CC1)c1ccccc1` (stereo unspecified) showed an RP-LC retention time of 649 s.

Regarding `COc1cc(NC(=O)Cc2csc3nc(-c4ccccc4)cn23)cc(OC)c1OC`, the RP-LC retention time is 749 s.

In turn, `O=C(NCc1ccc(F)cc1F)C1CCN(c2ccc(SCc3ccccc3)nn2)CC1` had an RP-LC retention time of 646 s.

`CCc1ccc(NC(=O)C2(C)Oc3cccnc3NC2=O)cc1` (stereo unspecified): the RP-LC retention time was 770 s.

`CCn1ccc2cc(S(=O)(=O)N3CCC(C(=O)NCCCN4CCCC(C)C4)CC3)ccc21` (stereo unspecified) displayed an RP-LC retention time of 676 s.

Compound `O=C(NCc1cccs1)C1CCCN(c2cnc3nccnc3c2)C1` (stereo unspecified) registered an RP-LC retention time of 661 s.

For the compound `NC(=O)Nc1ccc(Nc2ccccc2)cc1`, the RP-LC retention time is 752 s.

With `O=C(Cc1ccsc1)N1CCC2(CC1)CC(N1CCCCC1)CCO2` (stereo unspecified), the RP-LC retention time was 590 s.

Take `CCc1ccc(CNC(=O)C2CCN(c3cnc(N4CCOCC4)nc3)CC2)cc1`: the RP-LC retention time is 786 s.

In turn, `O=S(=O)(Cc1cccc(Cl)c1)N1CCc2nc[nH]c2C1` had an RP-LC retention time of 616 s.

In turn, `CCc1cc(N2CCN(C(=O)c3ccc(Br)cc3)CC2)nc2nnc(C)n12` registered an RP-LC retention time of 640 s.

With `O=C(CCC(=O)N1CCOc2ccc(Cl)cc21)N1CCN(c2ccccn2)CC1`, the RP-LC retention time came out at 656 s.

Turning to `COc1ccc(C2Nc3ccccc3NC3=C2C(=O)CC(c2cccs2)C3)cc1OC` (stereo unspecified), the RP-LC retention time came out at 730 s.

With `CCn1ncn2cc(S(=O)(=O)Nc3ccccc3C)cc2c1=O`, the RP-LC retention time is 863 s.

Compound `COc1ccc(OC)c(CNC(=O)COc2ccc(NC(=O)C3CC3)cn2)c1` gave an RP-LC retention time of 712 s.

`CCOc1ccccc1NC(=O)N1CCC(CN2CCC(C)CC2)CC1` gave an RP-LC retention time of 582 s.

In the case of `COc1cc(NC(=O)Cn2nc3n(c2=O)CCCCC3)cc(OC)c1OC`, the RP-LC retention time is 659 s.

Regarding `CCOC(=O)c1cc2ccsc2n1CC(=O)Nc1ccc(F)c(F)c1`, the RP-LC retention time worked out at 1020 s.

As for `O=C(CN1C(=O)CN(C(=O)Nc2ccccc2)c2ccccc21)NCc1ccccn1`, the RP-LC retention time was found to be 587 s.

Compound `Cn1cc(CCNC(=O)Nc2ccc(F)cc2)c2cccnc21` came in with an RP-LC retention time of 679 s.

As to `O=C1CCCCC(Cc2ccccc2)(C(=O)Nc2cccnc2)N1` (stereo unspecified), the RP-LC retention time came to 623 s.

In turn, `COc1ccc(-n2ccnc(NC(=O)Nc3ccc(F)c(Cl)c3)c2=O)cc1` had an RP-LC retention time of 1020 s.

The compound `CN(Cc1ccccc1)c1ccc(-c2noc(CN3CCN(c4ccccc4)CC3)n2)cn1` yielded an RP-LC retention time of 1100 s.

`Cc1cc(OCC(=O)Nc2c(C)cccc2C)nc(N2CCN(c3ccccc3)CC2)n1`: the RP-LC retention time was 861 s.

On to `CC1(C(=O)NCc2ccccc2)Oc2cccnc2NC1=O` (stereo unspecified), for which the RP-LC retention time came to 638 s.

As to `COc1ccc(CCC(=O)Nc2cc(-c3cccnc3)no2)cc1`, the RP-LC retention time worked out at 756 s.

In the case of `CCNC(=O)c1cc2cc(Br)ccc2[nH]1`, the RP-LC retention time turned out to be 828 s.

`CC(C)(C)NC(=O)N1CCC(CNS(=O)(=O)c2ccc(Br)s2)CC1` had an RP-LC retention time of 818 s.

The compound `Cc1nc(-c2csc(S(=O)(=O)N3CCCC(C(=O)Nc4ccc(F)cc4C)C3)c2)no1` (stereo unspecified) showed an RP-LC retention time of 892 s.

Regarding `Fc1ccc(Cn2cc(-c3noc(-c4ccc5cc[nH]c5c4)n3)nn2)cc1`, the RP-LC retention time was 952 s.

In the case of `COc1ccc(Cl)cc1NC(=O)NC1CCN(c2ccc(C)cc2)C1=O` (stereo unspecified), the RP-LC retention time is 931 s.

On to `Cc1nnsc1C(=O)Nc1ccc(-n2nc(C(F)(F)F)cc2C(F)(F)F)cc1`, for which the RP-LC retention time turned out to be 758 s.

For the compound `CCC(=O)N1CCN(c2nc3c(s2)CC(C(=O)Nc2ccc(Cl)c(C)c2)CC3)CC1` (stereo unspecified), the RP-LC retention time worked out at 607 s.

`O=C(c1cnn(-c2ccccc2)n1)N1CC(c2nc3ccccc3[nH]2)C1` yielded an RP-LC retention time of 578 s.

Take `Cc1nc(NCc2ccco2)sc1C(=O)Nc1ccc(F)c(Cl)c1`: the RP-LC retention time is 900 s.

Compound `Cc1ccccc1NC(=O)NCCc1cn(CC(C)C)c2ncccc12` displayed an RP-LC retention time of 808 s.

With `CCN1CCC2(CC1)OC(=O)C(C)=C2C(=O)NCC(C)c1ccccc1` (stereo unspecified), the RP-LC retention time was 630 s.

In the case of `CCN1C(=O)COc2ccc(-c3nc(NC(=O)c4cccs4)sc3C)cc21`, the RP-LC retention time came to 990 s.

On to `O=C(Nc1nnc(C2CC(=O)N(c3ccc(Cl)cc3)C2)o1)c1cccc(F)c1` (stereo unspecified), for which the RP-LC retention time stood at 786 s.

On to `CN1CCN(CCNC(=O)C2CCc3sc(C(=O)N4CCCCCC4)cc3C2)CC1` (stereo unspecified), for which the RP-LC retention time is 601 s.

As to `O=C(CSc1nnc(CCc2nc3ccccc3[nH]2)o1)NCc1c(F)cccc1F`, the RP-LC retention time stood at 571 s.

With `COc1ccc(OC)c(Nc2c(-c3ccc(Cl)cc3)nc3cnccn23)c1`, the RP-LC retention time is 968 s.

As to `COCCNC(=O)c1nn(-c2ccc(F)cc2)nc1CO`, the RP-LC retention time was determined as 730 s.

In turn, `CCCCNc1nc(N)ncc1[N+](=O)[O-]` gave an RP-LC retention time of 790 s.

With `Nc1nc(N2CCN(c3ccccn3)CC2)ncc1C(=O)Nc1ccccc1`, the RP-LC retention time turned out to be 585 s.

Take `COc1ccc(-c2cc(=O)n3c4ccccc4n(CC(=O)NCc4ccco4)c3n2)cc1`: the RP-LC retention time is 855 s.

`CCNCc1ccc(-c2cc(Cl)ccc2Cl)o1` registered an RP-LC retention time of 686 s.

Regarding `COc1ccc(-n2c(N)cc(=O)nc2SCC(=O)Nc2cc(C)on2)cc1`, the RP-LC retention time was 588 s.

Compound `CC(C)(C)CC(=O)Nc1ccc2c(c1)N(C(=O)c1ccco1)CCC2` showed an RP-LC retention time of 866 s.

`COc1cc2c(cc1CNC(=O)Cn1cc(C(=O)C(C)C)c3ccccc31)OCCCO2` displayed an RP-LC retention time of 893 s.

As for `COCCCNS(=O)(=O)c1cc(-c2[nH]ncc2C(=O)N2CCCC2)oc1C`, the RP-LC retention time came out at 623 s.

Take `Cc1ccc(C)c(CS(=O)(=O)N2CCC(CN3CCCCCC3)CC2)c1`: the RP-LC retention time is 700 s.

In turn, `O=C(NCc1ccc(C(F)(F)F)cc1)c1c(O)c2cccnc2[nH]c1=O` had an RP-LC retention time of 1010 s.

The compound `COc1ccc(-c2nc(Cn3c(C)cc(C)c(-c4nc(-c5ccccc5)no4)c3=O)c(C)o2)cc1` displayed an RP-LC retention time of 1230 s.

With `CC1(C)CC(=O)C2=C(C1)Nc1ccccc1N(C(=O)c1ccccc1)C2c1ccco1` (stereo unspecified), the RP-LC retention time worked out at 825 s.

Compound `Clc1ccc(N2CCN(Cc3cc4ccccn4n3)CC2)cc1` had an RP-LC retention time of 754 s.

Consider `COCCc1noc(-c2cnc3nc(C)ccc3c2NCc2cccc(Cl)c2)n1`, for which the RP-LC retention time was 711 s.

With `Cc1cc(C)cc(C(=O)NC2CCN(c3ccccc3)C2=O)c1` (stereo unspecified), the RP-LC retention time is 862 s.

As for `CCCCCn1c(=O)c2ccccc2n(Cc2nc(-c3cccc(Cl)c3)no2)c1=O`, the RP-LC retention time came to 1100 s.

`Cc1ccc(Cn2c(=O)n(CCNC(=O)C3CCCO3)c3ncccc32)cc1` (stereo unspecified) gave an RP-LC retention time of 726 s.

As to `CCOC(=O)c1c(S(=O)(=O)N2CCc3ccccc3C2)c(C)n(C)c1C`, the RP-LC retention time turned out to be 989 s.

In the case of `COc1ccc(CNC(=O)c2ccc3c(c2)nc2n3CCN(C(C)C)C2=O)c(OC)c1`, the RP-LC retention time was 708 s.

Turning to `Cc1nc(-c2cc(S(=O)(=O)Nc3ccccc3Cl)c(C)s2)sc1C`, the RP-LC retention time amounted to 1120 s.

Turning to `CCOc1ccc2cccc(NC(=O)c3cc(C)oc3C)c2n1`, the RP-LC retention time turned out to be 1310 s.
